Measurements: patent US9867795B2, “Nitrated lipids and methods of making and using thereof” (The UAB Research Foundation, priority 2004, dated 2018)

Tested on: human vascular endothelial cells and macrophages
Assay: Whole Human Genome Oligo Array gene expression
Format: cell-based
Design: CCNE1 down-regulated / CAMK1 down-regulated / TCF4 down-regulated / PPARGC1B down-regulated / RB1 down-regulated / TNF down-regulated / TYK2 down-regulated / STAT1 down-regulated / CAV3 down-regulated / EDARADD down-regulated / DAPK2 down-regulated / CASP8AP2 down-regulated / ITR down-regulated / RAC2 down-regulated / CDC2 down-regulated / CDC42 down-regulated / CCND3 down-regulated / PLAU down-regulated / EGR2 down-regulated / ADRB2 down-regulated / VASP down-regulated / FDPS down-regulated / IL11 down-regulated / AIF1 down-regulated / TGFB1 down-regulated / PIK3CB down-regulated / PTGS1 down-regulated / IRS1 down-regulated / TIMP2 down-regulated / PTGES2 down-regulated / PDGFRA down-regulated / TLR2 down-regulated / E2F2 down-regulated / RACGAP1 down-regulated / LDLR down-regulated / NCOR2 down-regulated / NCR1 down-regulated / CARD9 down-regulated / SRF down-regulated / PDGFA down-regulated / FLJ23091 down-regulated / BCL2A1 down-regulated / TIMP1 down-regulated / PDGFC down-regulated / TIMP3 down-regulated / ARHGEF1 down-regulated / FN1 down-regulated / MMP19 down-regulated / JUNB down-regulated / PPARD down-regulated / MYLK down-regulated / TGFBI down-regulated / ILK down-regulated / MAPKAPK3 down-regulated / ROCK1 down-regulated / IGF1 down-regulated / VEGFB down-regulated / ECGF1 down-regulated / GADD45A up-regulated / CASP1 up-regulated / CASP4 up-regulated / CCNA1 up-regulated / JUN up-regulated / CASP3 up-regulated / GADD45B up-regulated / AATK up-regulated / AMID up-regulated / IL10RA up-regulated / GADD45G up-regulated / IRS2 up-regulated / HO-1, heme oxygenase-1 up-regulated: dose or concentration left out as unconfirmed
Conditions: 24 hours
Method: The nitroalkenes of the present invention also display regulatory actions towards the expression of genes related to inflammatory responses, cell growth, cell differentiation, cell signaling, cell death (apoptosis) and metabolism. For example, nitrolinoleate regulates gene expression in human vascular endothelial cells and macrophages. Cells were stimulated with vehicle and linoleic acid (2.5 μM, the latter two treatments as controls) and LNO2O ([…]) for 24 hours. The total RNA was purified with a Qiagen Kit and analyzed with a Whole Human Genome Oligo Array (G4112A, 41K Genes, Agilent). […] In contrast, the native (precursor) fatty acid, linoleic acid, only regulates 14 genes, with an up-regulation of 5 genes and the down-regulation of 9 genes.

[1] = LNO2O 2.5 mM, linoleic acid 2.5 μM

Substance: 10-nitro-9,12-octadecadienoic acid and 12-nitro-9,12-octadecadienoic acid [LNO2]
- AATK up-regulated: 1.503
- AMID up-regulated: 8.362
- CASP1 up-regulated: 2.572
- CASP3 up-regulated: 1.689
- CASP4 up-regulated: 2.57
- CCNA1 up-regulated: 2.558
- GADD45A up-regulated: 2.823
- GADD45B up-regulated: 1.674
- GADD45G up-regulated: 3.155
- HO-1, heme oxygenase-1 up-regulated: 4.086
- IL10RA up-regulated: 3.173
- IRS2 up-regulated: 3.243
- JUN up-regulated: 2.454
- number of genes down-regulated [1]: > 3000 genes
- number of genes regulated [1]: > 5000 genes
- number of genes up-regulated [1]: > 2300 genes
- ADRB2 down-regulated (p < 0.05): 2.04 fold
- AIF1 down-regulated (p < 0.05): 3.95 fold
- ARHGEF1 down-regulated (p < 0.05): 1.64 fold
- BCL2A1 down-regulated (p < 0.05): 3.50 fold
- CAMK1 down-regulated (p < 0.05): 2.24 fold
- CARD9 down-regulated (p < 0.05): 3.33 fold
- CASP8AP2 down-regulated (p < 0.05): 1.52 fold
- CAV3 down-regulated (p < 0.05): 1.76 fold
- CCND3 down-regulated (p < 0.05): 1.51 fold
- CCNE1 down-regulated (p < 0.05): 1.58 fold
- CDC2 down-regulated (p < 0.05): 2.75 fold
- CDC42 down-regulated (p < 0.05): 1.65 fold
- DAPK2 down-regulated (p < 0.05): 1.73 fold
- E2F2 down-regulated (p < 0.05): 3.70 fold
- ECGF1 down-regulated (p < 0.05): 1.73 fold
- EDARADD down-regulated (p < 0.05): 1.69 fold
- EGR2 down-regulated (p < 0.05): 2.65 fold
- FDPS down-regulated (p < 0.05): 2.46 fold
- FLJ23091 down-regulated (p < 0.05): 1.74 fold
- FN1 down-regulated (p < 0.05): 3.33 fold
- IGF1 down-regulated (p < 0.05): 1.54 fold
- IL11 down-regulated (p < 0.05): 2.02 fold
- ILK down-regulated (p < 0.05): 2.94 fold
- IRS1 down-regulated (p < 0.05): 2.40 fold
- ITR down-regulated (p < 0.05): 1.68 fold
- JUNB down-regulated (p < 0.05): 1.60 fold
- LDLR down-regulated (p < 0.05): 1.77 fold
- MAPKAPK3 down-regulated (p < 0.05): 2.18 fold
- MMP19 down-regulated (p < 0.05): 1.58 fold
- MYLK down-regulated (p < 0.05): 3.13 fold
- NCOR2 down-regulated (p < 0.05): 1.59 fold
- NCR1 down-regulated (p < 0.05): 2.30 fold
- PDGFA down-regulated (p < 0.05): 2.27 fold
- PDGFC down-regulated (p < 0.05): 1.72 fold
- PDGFRA down-regulated (p < 0.05): 2.36 fold
- PIK3CB down-regulated (p < 0.05): 1.93 fold
- PLAU down-regulated (p < 0.05): 7.58 fold
- PPARD down-regulated (p < 0.05): 3.12 fold
- PPARGC1B down-regulated (p < 0.05): 2.20 fold
- PTGES2 down-regulated (p < 0.05): 1.59 fold
- PTGS1 down-regulated (p < 0.05): 3.95 fold
- RAC2 down-regulated (p < 0.05): 2.47 fold
- RACGAP1 down-regulated (p < 0.05): 2.35 fold
- RB1 down-regulated (p < 0.05): 2.06 fold
- ROCK1 down-regulated (p < 0.05): 1.59 fold
- SRF down-regulated (p < 0.05): 1.56 fold
- STAT1 down-regulated (p < 0.05): 1.74 fold
- TCF4 down-regulated (p < 0.05): 2.63 fold
- TGFB1 down-regulated (p < 0.05): 2.46 fold
- TGFBI down-regulated (p < 0.05): 9.80 fold
- TIMP1 down-regulated (p < 0.05): 3.62 fold
- TIMP2 down-regulated (p < 0.05): 1.92 fold
- TIMP3 down-regulated (p < 0.05): 2.27 fold
- TLR2 down-regulated (p < 0.05): 1.89 fold
- TNF down-regulated (p < 0.05): 2.01 fold
- TYK2 down-regulated (p < 0.05): 2.00 fold
- VASP down-regulated (p < 0.05): 4.85 fold
- VEGFB down-regulated (p < 0.05): 1.51 fold
